Consider one compound from patent US20240384350A1, “METHODS OF TREATING CANCER WITH KINASE INHIBITORS” (BOARD OF REGENTS, THE UNIVERSITY OF TEXAS SYSTEM, priority 2021, published 2024).

The test deals with EGFR mutations spanning exons 18-21. Nature of the test: Ba/F3 panel of 76 cell lines expressing EGFR mutations, selectivity over WT EGFR by structure-function group. To be noted: Ex20ins mutations, FIG. 5A. The class given is cell-based. The source says:
To determine the effect of EGFR mutations on TKI sensitivity, a panel of 76 cell lines expressing EGFR mutations spanning exons 18-21 was generated and screened against 18 known EGFR inhibitors representing 1st (non-covalent), 2nd (covalent), and 3rd (covalent, T790M targeting) generation TKIs, and compounds under investigation for Ex20ins. […] For the various mutations, structure-function based groups were more predictive of drug sensitivity than exon based groups as determined by spearmen correlations (p<0.0001, FIG. 1F, FIG. 2). […]
After 48-72 hours of transduction, 2 μg/ml puromycin (Invitrogen) was added to Ba/F3 cell lines in complete RPMI. […] Plates were incubated for a minimum of 10 minutes, and bioluminescence was determined using a FLUOstar OPTIMA plate reader (BMG LABTECH). […] Statistical differences between groups were determined by ANOVA as described in the figure legends. […]

Each structure is given as a SMILES string.

On to `CN(C)C/C=C/C(=O)Nc1cc2c(Nc3ccc(Cl)c(Br)c3)ncnc2cn1` [Tarlox-TKI], for which the sensitivity in vitro entry was “sensitive”.
